Drawing on patent US20260042755A1, “GPR6 INVERSE AGONISTS” (MapLight Therapeutics, Inc., priority 2022, published 2026), this text covers IC50 for 30 molecules.

pIC50: −log10 of the molar value.

For one experiment, the target named is T1, GPR3 (Homo sapiens, UniProt P46089).
T1 construct: expressed in transfected cells; host or cells: CHO cells
The experiment is described as follows: GPR3 antagonist functional cAMP assay (LANCE Ultra cAMP TR-FRET, CHO cells stably expressing GPR3). Format: cell-based. The method in brief: (§1)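 10,000 cells/well; KRB buffer + 0.1% BSA + 150 μM Ro 20-1724; cpd 45 min, 37 °C, 0.1% DMSO; TR-FRET cAMP, 665 nm; 4-PL fit, normalized to DMSO (0.1%) and reference (100%) → IC50.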

A further experiment deals with T2, GPR6 (Homo sapiens, UniProt P46095).
T2 construct: expressed in transfected cells; host or cells: CHO cells
T2 sequence (P46095 whole entry): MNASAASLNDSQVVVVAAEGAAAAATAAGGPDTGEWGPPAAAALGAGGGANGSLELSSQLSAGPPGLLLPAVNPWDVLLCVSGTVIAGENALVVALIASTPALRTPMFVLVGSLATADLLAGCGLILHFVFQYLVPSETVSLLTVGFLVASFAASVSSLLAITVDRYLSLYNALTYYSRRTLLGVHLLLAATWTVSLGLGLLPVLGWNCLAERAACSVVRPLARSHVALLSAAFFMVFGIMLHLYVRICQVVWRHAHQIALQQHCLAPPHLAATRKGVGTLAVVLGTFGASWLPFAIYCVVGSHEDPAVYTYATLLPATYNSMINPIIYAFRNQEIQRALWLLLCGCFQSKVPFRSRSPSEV
The experiment is described as follows: GPR6 antagonist functional cAMP assay (LANCE Ultra cAMP TR-FRET, CHO cells stably expressing GPR6). Format: cell-based. The method in brief: as §1

Setting [1] is: CHO cells stably expressing GPR3, cAMP assay.
[2] abbreviates: CHO cells stably expressing GPR6, cAMP assay.
Where [3] appears, read: procedure as described in Example 24.
Setting [4] is: CHO cells stably expressing GPR3, cAMP assay (Example 24).
The mark [5] stands for this setting: CHO cells stably expressing GPR6, cAMP assay (Example 24).

T1 sequence (P46089 whole entry, species assumed): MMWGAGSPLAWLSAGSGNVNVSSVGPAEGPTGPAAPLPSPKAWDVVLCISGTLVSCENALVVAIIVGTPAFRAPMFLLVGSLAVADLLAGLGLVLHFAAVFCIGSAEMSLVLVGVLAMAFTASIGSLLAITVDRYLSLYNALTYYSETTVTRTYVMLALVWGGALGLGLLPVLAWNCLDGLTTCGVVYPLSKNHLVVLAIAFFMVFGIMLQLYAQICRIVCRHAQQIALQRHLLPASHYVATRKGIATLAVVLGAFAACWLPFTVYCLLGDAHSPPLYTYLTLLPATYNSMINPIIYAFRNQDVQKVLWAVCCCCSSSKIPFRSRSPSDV

`COC[C@H]1C[C@@H]1c1nc2c(nc1N1CCC(Oc3ccc(F)cc3F)CC1)CCN(C(C)=O)C2` [Compound 546, 1-{3-[(1S,2S)-2-(methoxymethyl)cyclopropyl]-2-[4-(2,4-difluorophenoxy)-1-piperidyl]-5,6,7,8-tetrahydro-1,4,6-triaza-6-naphthyl}-1-ethanone]: the negative logarithm of the IC50 (pIC50) is 4.52 to 6.00 against GPR3 (setting [1]) and > 7.00 at GPR6 (setting [2]).

For the molecule `CCn1cc(-c2nc3cnc([C@@H](O)C(C)(C)O)cc3nc2N2CCC(Oc3ccc(F)cc3F)CC2)cn1` (single isomer, unassigned) [Compound 570], the pIC50 at GPR3 (setting [1]) is 4.52 to 6.00; against GPR6 (setting [2]), > 7.00.

In the case of `CC(C)(O)C(C)(O)c1cc2nc(-c3cnn(CF)c3)c(N3CCC(Oc4ccc(F)cc4F)CC3)nc2cn1` (single isomer, unassigned) [Compound 782], the pIC50 against GPR3 (procedure of Example 24) was 4.52 to 6.00; against GPR6 (procedure of Example 24), 6.00 to 7.00.

For the molecule `CC(C)(O)C(O)c1cc2nc(-c3cnn(CF)c3)c(N3CCC(Oc4ccc(F)cc4F)CC3)nc2cn1` (single isomer, unassigned) [Compound 592], the figures for the pIC50 at GPR3 (setting [1]) and at GPR6 (setting [2]) were 6.00 to 7.00 and > 7.00, respectively.

Turning to `CS(=O)(=O)c1ccc(CN2CCN(c3nc4ccncc4nc3-c3cn[nH]c3)CC2)c(F)c1` [Compound 22, 1-[(2-fluoro-4-methanesulfonylphenyl)methyl]-4-[3-(1H-pyrazol-4-yl)pyrido[3,4-b]pyrazin-2-yl]piperazine], the values for the pIC50 against GPR3 (setting [3]) and against GPR6 (setting [3]) were 6.00 to 7.00 and ≤ 4.52, respectively.

Take `Cn1cc(-c2nc3cnc([C@@H](O)C(C)(C)O)cc3nc2N2CCC(=Cc3ccc(F)cc3F)CC2)cn1` (single isomer, unassigned) [Compound 719]: the pIC50 against GPR3 (procedure of Example 24) was 4.52 to 6.00; against GPR6 (procedure of Example 24) it was > 7.00.

For `COC(=O)c1cc2nc(N3CCC(Oc4ccc(F)cc4F)CC3)c(-c3cncc(OC)n3)nc2cn1` [Compound 221, methyl 2-[4-(2,4-difluorophenoxy)piperidin-1-yl]-3-(6-methoxypyrazin-2-yl)pyrido[3,4-b]pyrazine-7-carboxylate], the pIC50 against GPR3 (setting [4]) and against GPR6 (setting [5]) was 4.52 to 6.00 each time.

Take `CC(C)(O)[C@@H](O)c1cc2nc(N3CCN(Cc4cc(F)ccc4F)CC3)c(-c3cnn(CF)c3)nc2cn1` (single isomer, unassigned) [Compound 725]: the pIC50 is ≤ 4.52 on GPR3 (procedure of Example 24) and 6.00 to 7.00 against GPR6 (procedure of Example 24).

`CC(C)(O)[C@H](O)c1cc2nc(N3CCC(=Cc4ccc(F)cc4F)CC3)c(-c3cnn(C4CC4)c3)nc2cn1` (single isomer, unassigned) [Compound 770]: the pIC50 against GPR3 (procedure of Example 24) was 4.52 to 6.00; against GPR6 (procedure of Example 24), 6.00 to 7.00.

Take `CC(C)(O)[C@](C)(O)c1cc2nc(N3CCN(Cc4ccc(F)cc4F)CC3)c(-c3cnn(C4CC4)c3)nc2cn1` (single isomer, unassigned) [Compound 666]: the pIC50 against GPR3 (procedure of Example 24) was 4.52 to 6.00; against GPR6 (procedure of Example 24) it was 6.00 to 7.00.

On to `CCn1cc(-c2nc3c(nc2N2CCC(Oc4ccc(F)cc4F)CC2)CCN(C#N)C3)cn1` [Compound 274, 2-(4-(2,4-difluorophenoxy)piperidin-1-yl)-3-(1-ethyl-1H-pyrazol-4-yl)-7,8-dihydropyrido[3,4-b]pyrazine-6(5H)-carbonitrile], for which the pIC50 is 4.52 to 6.00 against GPR3 (procedure of Example 24) and > 7.00 against GPR6 (procedure of Example 24).

Take `CCc1nccc(-c2nc3c(nc2N2CCC(Oc4ccc(F)cc4F)CC2)CCN(C(C)=O)C3)n1` [Compound 479, 1-{2-[4-(2,4-difluorophenoxy)piperidin-1-yl]-3-(2-ethylpyrimidin-4-yl)-5H,6H,7H,8H-pyrido[3,4-b]pyrazin-6-yl}ethan-1-one]: the pIC50 on GPR3 (setting [4]) and at GPR6 (setting [5]) was 4.52 to 6.00 throughout.

Take `CC(C)(O)[C@@](C)(O)c1cc2nc(N3CCN(Cc4ccc(F)cc4F)CC3)c(-c3cnn(C(F)F)c3)nc2cn1` (single isomer, unassigned) [Compound 695]: the pIC50 at GPR3 (procedure of Example 24) is 4.52 to 6.00; on GPR6 (procedure of Example 24), 6.00 to 7.00.

On to `CC(=O)N1CCc2nc(N3CCC(Oc4ccc(F)cc4F)CC3)c(-c3ccccn3)nc2C1` [Compound 79, 1-{2-[4-(2,4-difluorophenoxy)piperidin-1-yl]-3-(pyridin-2-yl)-5H,6H,7H,8H-pyrido[3,4-b]pyrazin-6-yl}ethan-1-one], for which the pIC50 at GPR3 (setting [4]) and against GPR6 (setting [5]) was 4.52 to 6.00 throughout.

`Fc1ccc(OC2CCN(c3nc4cnccc4nc3-c3cnn(C4CCCCO4)c3)CC2)c(F)c1` (stereo not drawn) [Compound 97, 4-(2,4-difluorophenoxy)-1-{2-[1-(oxan-2-yl)-1H-pyrazol-4-yl]pyrido[3,4-b]pyrazin-3-yl}piperidine]: the pIC50 on GPR3 (setting [4]) and at GPR6 (setting [5]) was 4.52 to 6.00 throughout.

`CC(C)(O)C(O)c1cc2nc(-c3cnn(CF)c3)c(N3CCC(=Cc4ccc(F)cc4F)CC3)nc2cn1` (single isomer, unassigned) [Compound 777]: the pIC50 at GPR3 (procedure of Example 24) and against GPR6 (procedure of Example 24) was 6.00 to 7.00 each time.

With `CC(=O)N1CCc2nc(N3CCN(Cc4ccco4)CC3)c(-c3cnn(C)c3)nc2C1` [Compound 537, 1-[2-(4-furfuryl-1-piperazinyl)-3-(1-methyl-4-pyrazolyl)-5,6,7,8-tetrahydro-1,4,6-triaza-6-naphthyl]-1-ethanone], the pIC50 on GPR3 (setting [1]) and against GPR6 (setting [2]) was 4.52 to 6.00 each time.

For the molecule `OCCNc1cc2nc(-c3cnn(CF)c3)c(N3CCN(Cc4ccc(F)cc4F)CC3)nc2cn1` [Compound 759, 2-(3-{4-[(2,4-difluorophenyl)methyl]-1-piperazinyl}-2-[1-(fluoromethyl)-4-pyrazolyl]-1,4,6-triaza-7-naphthylamino)ethanol], the pIC50 was 4.52 to 6.00 against GPR3 (procedure of Example 24) and 6.00 to 7.00 against GPR6 (procedure of Example 24).

Take `COC[C@](C)(O)c1cc2nc(-c3cnn(C)c3)c(N3CCC(Oc4ccc(F)cc4F)CC3)nc2cn1` (single isomer, unassigned) [Compound 689]: the pIC50 on GPR3 (procedure of Example 24) and against GPR6 (procedure of Example 24) was 6.00 to 7.00 throughout.

With `CCn1cc(-c2nc3c(nc2N2CCC(Oc4ccc(F)cc4F)CC2)CCN(S(=O)(=O)C(C)C)C3)cn1` [Compound 266, 4-(2,4-difluorophenoxy)-1-[3-(1-ethyl-1H-pyrazol-4-yl)-6-(propane-2-sulfonyl)-5H,6H,7H,8H-pyrido[3,4-b]pyrazin-2-yl]piperidine], the pIC50 on GPR3 (procedure of Example 24) was 4.52 to 6.00; on GPR6 (procedure of Example 24), > 7.00.

As for `CC(=O)N1CCc2nc(N3CCC(Oc4ccc(F)cc4F)CC3)c(-c3cnn(C4CN(C(C)=O)C4)c3)nc2C1` [Compound 163, 1-[3-(4-{6-acetyl-2-[4-(2,4-difluorophenoxy)piperidin-1-yl]-5H,6H,7H,8H-pyrido[3,4-b]pyrazin-3-yl}-1H-pyrazol-1-yl)azetidin-1-yl]ethan-1-one], the pIC50 against GPR3 (setting [4]) and against GPR6 (setting [5]) was 4.52 to 6.00 throughout.

`CC(C)(O)C(C)(O)c1cc2nc(-c3cnn(C4CC4)c3)c(N3CCC(Oc4ccc(F)cc4F)CC3)nc2cn1` (single isomer, unassigned) [Compound 721]: the values for the pIC50 on GPR3 (procedure of Example 24) and against GPR6 (procedure of Example 24) were 4.52 to 6.00 and 6.00 to 7.00, respectively.

As to `COCC1(Oc2ccc(F)cc2F)CCN(c2nc3ccncc3nc2-c2cn[nH]c2)CC1` [Compound 63, 2-(4-(2,4-difluorophenoxy)-4-(methoxymethyl)piperidin-1-yl)-3-(1H-pyrazol-4-yl)pyrido[3,4-b]pyrazine], the pIC50 was 6.00 to 7.00 against GPR3 (setting [4]) and 4.52 to 6.00 against GPR6 (setting [5]).

With `CC(=O)N1CCc2nc(N3CCC(Oc4ccc(F)cc4F)CC3)c(C3CCCC(=O)N3)nc2C1` (stereo not drawn) [Compound 258, 6-{6-acetyl-2-[4-(2,4-difluorophenoxy)piperidin-1-yl]-5H,6H,7H,8H-pyrido[3,4-b]pyrazin-3-yl}piperidin-2-one], the pIC50 at GPR3 (setting [4]) and against GPR6 (setting [5]) was ≤ 4.52 each time.

On to `CC(C)(O)C(O)c1cc2nc(-c3cnn(C4CC4)c3)c(N3CCC(Oc4ccc(F)cc4F)CC3)nc2cn1` (single isomer, unassigned) [Compound 591], for which the pIC50 is 4.52 to 6.00 at GPR3 (setting [1]) and > 7.00 on GPR6 (setting [2]).

In the case of `CC(=O)N1CCc2nc(N3CCC(=C(C)c4ccc(F)cc4F)CC3)c(-c3cnn(C)c3)nc2C1` [Compound 718, 1-(2-{4-[1-(2,4-difluorophenyl)ethylidene]-1-piperidyl}-3-(1-methyl-4-pyrazolyl)-5,6,7,8-tetrahydro-1,4,6-triaza-6-naphthyl)-1-ethanone], the pIC50 against GPR3 (procedure of Example 24) and at GPR6 (procedure of Example 24) was 4.52 to 6.00 throughout.

Regarding `CC(C)(O)C(O)c1ncc2nc(-c3cnn(CF)c3)c(N3CCN(Cc4ccc(F)cc4F)CC3)nc2c1F` (racemic) [Compound 797, 1-(2-{4-[(2,4-difluorophenyl)methyl]-1-piperazinyl}-8-fluoro-3-[1-(fluoromethyl)-4-pyrazolyl]-1,4,6-triaza-7-naphthyl)-2-methyl-1,2-propanediol], the pIC50 against GPR3 (procedure of Example 24) was 4.52 to 6.00; at GPR6 (procedure of Example 24), 6.00 to 7.00.

Regarding `CC(=O)N1CCc2nc(N3CCC(Oc4ccc(F)cc4F)CC3)c(-c3cnn(CCF)c3)nc2C1` [Compound 16, 1-{2-[4-(2,4-difluorophenoxy)piperidin-1-yl]-3-[1-(2-fluoroethyl)-1H-pyrazol-4-yl]-5H,6H,7H,8H-pyrido[3,4-b]pyrazin-6-yl}ethan-1-one], the pIC50 against GPR3 (setting [3]) was 4.52 to 6.00; at GPR6 (setting [3]), 6.00 to 7.00.

On to `CC(=O)N1CCc2nc(N3CCN(Cc4ccccc4F)CC3)c(-c3cnn(C)c3)nc2C1` [Compound 252, 1-(2-{4-[(2-fluorophenyl)methyl]piperazin-1-yl}-3-(1-methyl-1H-pyrazol-4-yl)-5H,6H,7H,8H-pyrido[3,4-b]pyrazin-6-yl)ethan-1-one], for which the pIC50 was 4.52 to 6.00 against GPR3 (setting [4]) and 6.00 to 7.00 against GPR6 (setting [5]).

Turning to `CC(=O)N1CCc2nc(N3CCC(O)(Cc4ccc(F)cc4F)CC3)c(-c3cnn(C)c3)nc2C1` [Compound 699, 1-(2-(4-(2,4-difluorobenzyl)-4-hydroxypiperidin-1-yl)-3-(1-methyl-1H-pyrazol-4-yl)-7,8-dihydropyrido[3,4-b]pyrazin-6(5H)-yl)ethan-1-one], the pIC50 at GPR3 (procedure of Example 24) was 4.52 to 6.00; on GPR6 (procedure of Example 24), 6.00 to 7.00.
